Experimental data: US7119180B2, “2-halogenated derivatives of 5-O-desosaminyl-erythronolide A, their preparation process and their antibiotic use” (Aventis Pharma S.A., priority 1998, dated 2006)

Key:
Type in all cases: cell-based
S. epidermidis 012GO11I = experiment: Method of dilutions in liquid medium (M.I.C.); conditions: reading after 24 hours, 37° C.
Procedure: (§1) Method of Dilutions in Liquid Medium A series of tubes were prepared in which the same quantity of nutritive sterile medium was distributed. Increasing quantities of the product to be studied were distributed into each tube and then each tube was seeded with a bacterial strain. After incubation for twenty-four hours in an oven at 37° C., the growth inhibition was evaluated by transillumination, which allowed the minimal inhibitory concentrations (M.I.C.) to be determined, expressed in micrograms/ml. The following results were obtained: (reading after 24 hours)

S. mitis 02MitCB1 = experiment: Method of dilutions in liquid medium (M.I.C.); conditions: reading after 24 hours, 37° C.
Procedure: as §1

S. agalactiae 02B1SJ1c = experiment: Method of dilutions in liquid medium (M.I.C.); conditions: reading after 24 hours, 37° C.
Procedure: as §1

S. faecium 02D3HT1 = experiment: Method of dilutions in liquid medium (M.I.C.); conditions: reading after 24 hours, 37° C.
Procedure: as §1

S. faecalis 02D2UC1 = experiment: Method of dilutions in liquid medium (M.I.C.); conditions: reading after 24 hours, 37° C.
Procedure: as §1

S. pyogenes 02A1UC1 = experiment: Method of dilutions in liquid medium (M.I.C.); conditions: reading after 24 hours, 37° C.
Procedure: as §1

[1] = test system: Streptococcus gr. G 02GOGR5; experiment: Method of dilutions in liquid medium (M.I.C.); conditions: reading after 24 hours, 37° C.
Procedure: as §1

S. aureus 011GO25I = experiment: Method of dilutions in liquid medium (M.I.C.); conditions: reading after 24 hours, 37° C.
Procedure: as §1

S. aureus 011UC4 = experiment: Method of dilutions in liquid medium (M.I.C.); conditions: reading after 24 hours, 37° C.
Procedure: as §1

S. agalactiae 02B1HT1 = experiment: Method of dilutions in liquid medium (M.I.C.); conditions: reading after 24 hours, 37° C.
Procedure: as §1

S. pneumoniae 030GR20 = experiment: Method of dilutions in liquid medium (M.I.C.); conditions: reading after 24 hours, 37° C.
Procedure: as §1

S. pneumoniae 032UC1 = experiment: Method of dilutions in liquid medium (M.I.C.); conditions: reading after 24 hours, 37° C.
Procedure: as §1

[2] = test system: Haemophilus Influenzae 351HT3; experiment: Activity on Gram- bacterial strains
Procedure: (§2) Method of Dilutions in Liquid Medium
as §1, with “A” for “Method of Dilutions in Liquid Medium A”, “micrograms/ml.” for “micrograms/ml. The following results were obtained: (reading after 24 hours)”

[3] = test system: Haemophilus Influenzae 351CB12; experiment: Activity on Gram- bacterial strains
Procedure: as §2
as §1, with “A” for “Method of Dilutions in Liquid Medium A”, “micrograms/ml.” for “micrograms/ml. The following results were obtained: (reading after 24 hours)”

[4] = test system: Haemophilus Influenzae 351CA1; experiment: Activity on Gram- bacterial strains
Procedure: as §2
as §1, with “A” for “Method of Dilutions in Liquid Medium A”, “micrograms/ml.” for “micrograms/ml. The following results were obtained: (reading after 24 hours)”

Row | Compound | minimal inhibitory concentrations (M.I.C.) (S. epidermidis 012GO11I) [micrograms/ml] | minimal inhibitory concentrations (M.I.C.) (S. mitis 02MitCB1) [micrograms/ml] | minimal inhibitory concentrations (M.I.C.) (S. agalactiae 02B1SJ1c) [micrograms/ml] | minimal inhibitory concentrations (M.I.C.) (S. faecium 02D3HT1) | minimal inhibitory concentrations (M.I.C.) (S. faecalis 02D2UC1) [micrograms/ml] | minimal inhibitory concentrations (M.I.C.) (S. pyogenes 02A1UC1) | minimal inhibitory concentrations (M.I.C.) [1] [micrograms/ml] | minimal inhibitory concentrations (M.I.C.) (S. aureus 011GO25I) [micrograms/ml] | minimal inhibitory concentrations (M.I.C.) (S. aureus 011UC4; S. aureus 011UC4 + 50% serum) [micrograms/ml] | minimal inhibitory concentrations (M.I.C.) (S. aureus 011UC4; S. aureus 011UC4) [micrograms/ml] | minimal inhibitory concentrations (M.I.C.) (S. agalactiae 02B1HT1) | minimal inhibitory concentrations (M.I.C.) (S. pneumoniae 030GR20) | minimal inhibitory concentrations (M.I.C.) (S. pneumoniae 032UC1) [micrograms/ml] | activity on Gram- bacterial strain [2] | activity on Gram- bacterial strain [3] | activity on Gram- bacterial strain [4]
1 | (3aS,4R,7S,9R,10R,11R,13R,15R,15aR,18S)-4-ethyl-7-fluoro-3a,4,10,11,12,13,15,15a-octahydro-18-(hydroxymethyl)-11-methoxy-3a,7,9,11,13,15-hexamethyl-10-[[3,4,6-trideoxy-3-(dimethylamino)-beta-D-xylo-hexopyranosyl]oxy]-14,1-(nitriloethano)-2H-oxacyclotetradecino[4,3-d]oxazole-2,6,8(7H,9H)-trione [Example 3] | 0.150 | 0.02 | 0.02 | 0.02 micrograms/ml | 0.02 | # 0.02 micrograms/ml | 0.02 | 0.040 | 0.040 | 0.040 | 0.02 micrograms/ml | 0.02 micrograms/ml | 0.02 |  |  | 
2 | CC[C@H]1OC(=O)[C@@](C)(F)C(=O)[C@H](C)[C@@H](O[C@@H]2O[C@H](C)C[C@H](N(C)C)[C@H]2O)[C@](C)(OC)C[C@@H](C)C2=NCCN3C(=O)O[C@@]1(C)[C@H]3[C@H]2C (relative stereo) [Example 1, [3 as-(3aR*,4S*,7R*,9S*,10S*,11S*,13S*,15S*,15aS*)]-4-ethyl-7-fluoro-3a,4,10,11,12,13,15,15a-octahydro-11-methoxy-3a,7,9,11,13,15-hexamethyl-10-[[3,4,6-trideoxy-3-(dimethyl-amino)-beta-D-xylo-hexopyranosyl]oxy]-14,1-(nitriloethano)-2H-oxacyclotetradecino[4,3-d]oxazole-2,6,8(9H)-trione] | 0.300 | 0.040 | 1.200 | # 0.02 micrograms/ml | 0.040 | 0.040 micrograms/ml | 0.040 | 0.600 | 0.040 | 0.150 | # 0.02 micrograms/ml | # 0.02 micrograms/ml | 0.080 | useful activity | useful activity | useful activity
